Tested on: maize haploids
Assay: Colchicine doubling treatment of BC3 haploids, pollen and kernel phenotypes in the field
Assay type: in vivo
Settings: for Average Number of Days of Pollen per Plant / Average Number of Kernels per Plant / Percent of Plants with Ears >5 kernels: colchicine-treated haploids
Source text: Genotyping was used to identify heterozygotes at SCD-QTL1, and those materials were then crossed by a haploid inducer, embryos isolated from the immature ears, and haploids regenerated for transplant into the field. Immediately after isolation, embryos from each of the 17 BC3 populations were split into 2 treatment groups. […] All lines were planted across three replications of the trial over the course of approximately 6 months, and the data was pooled for analysis.

[1] = BC3 recurrent parent Line 1, SCD Allele
[2] = BC3 recurrent parent Line 1, Unfavorable Allele
[3] = BC3 recurrent parent Line 2, SCD Allele
[4] = BC3 recurrent parent Line 2, Unfavorable Allele
[5] = BC3 recurrent parent Line 3, SCD Allele
[6] = BC3 recurrent parent Line 3, Unfavorable Allele
[7] = BC3 recurrent parent Line 4, SCD Allele
[8] = BC3 recurrent parent Line 4, Unfavorable Allele
[9] = BC3 recurrent parent Line 5, SCD Allele
[10] = BC3 recurrent parent Line 5, Unfavorable Allele
[11] = BC3 recurrent parent Line 6, SCD Allele
[12] = BC3 recurrent parent Line 6, Unfavorable Allele
[13] = BC3 recurrent parent Line 7, SCD Allele
[14] = BC3 recurrent parent Line 7, Unfavorable Allele
[15] = BC3 recurrent parent Line 8, SCD Allele
[16] = BC3 recurrent parent Line 8, Unfavorable Allele
[17] = BC3 recurrent parent Line 9, SCD Allele
[18] = BC3 recurrent parent Line 9, Unfavorable Allele
[19] = BC3 recurrent parent Line 10, SCD Allele
[20] = BC3 recurrent parent Line 10, Unfavorable Allele
[21] = BC3 recurrent parent Line 11, SCD Allele
[22] = BC3 recurrent parent Line 11, Unfavorable Allele
[23] = BC3 recurrent parent Line 12, SCD Allele
[24] = BC3 recurrent parent Line 12, Unfavorable Allele
[25] = BC3 recurrent parent Line 13, SCD Allele
[26] = BC3 recurrent parent Line 13, Unfavorable Allele
[27] = BC3 recurrent parent Line 14, SCD Allele
[28] = BC3 recurrent parent Line 14, Unfavorable Allele
[29] = BC3 recurrent parent Line 15, SCD Allele
[30] = BC3 recurrent parent Line 15, Unfavorable Allele
[31] = BC3 recurrent parent Line 16, SCD Allele
[32] = BC3 recurrent parent Line 16, Unfavorable Allele
[33] = BC3 recurrent parent Line 17, SCD Allele
[34] = BC3 recurrent parent Line 17, Unfavorable Allele

## COc1cc2c(c(OC)c1OC)-c1ccc(OC)c(=O)cc1[C@@H](NC(C)=O)CC2 [Colchicine, colchicine]
[1]
  Average Number of Days of Pollen per Plant: 3.1 days
  Average Number of Kernels per Plant: 23.8 kernels
  Percent of Plants with Ears >5 kernels: 53.9%
[2]
  Average Number of Days of Pollen per Plant: 2.4 days
  Average Number of Kernels per Plant: 13.5 kernels
  Percent of Plants with Ears >5 kernels: 26.6%
[3]
  Average Number of Days of Pollen per Plant: 1.72 days
  Average Number of Kernels per Plant: 5 kernels
  Percent of Plants with Ears >5 kernels: 12.0%
[4]
  Average Number of Days of Pollen per Plant: 2.35 days
  Average Number of Kernels per Plant: 9.62 kernels
  Percent of Plants with Ears >5 kernels: 13.5%
[5]
  Average Number of Days of Pollen per Plant: 1.76 days
  Average Number of Kernels per Plant: 7.62 kernels
  Percent of Plants with Ears >5 kernels: 6.9%
[6]
  Average Number of Days of Pollen per Plant: 1.45 days
  Average Number of Kernels per Plant: 9.03 kernels
  Percent of Plants with Ears >5 kernels: 9.1%
[7]
  Average Number of Days of Pollen per Plant: 0.04 days
  Average Number of Kernels per Plant: 0 kernels
  Percent of Plants with Ears >5 kernels: 0.0%
[8]
  Average Number of Days of Pollen per Plant: 0.57 days
  Average Number of Kernels per Plant: 7.1 kernels
  Percent of Plants with Ears >5 kernels: 13.2%
[9]
  Average Number of Days of Pollen per Plant: 2.34 days
  Average Number of Kernels per Plant: 2.31 kernels
  Percent of Plants with Ears >5 kernels: 3.1%
[10]
  Average Number of Days of Pollen per Plant: 2.19 days
  Average Number of Kernels per Plant: 4.88 kernels
  Percent of Plants with Ears >5 kernels: 7.6%
[11]
  Average Number of Days of Pollen per Plant: 1.675 days
  Average Number of Kernels per Plant: 11.23 kernels
  Percent of Plants with Ears >5 kernels: 25.0%
[12]
  Average Number of Days of Pollen per Plant: 2.01 days
  Average Number of Kernels per Plant: 19.09 kernels
  Percent of Plants with Ears >5 kernels: 27.2%
[13]
  Average Number of Days of Pollen per Plant: 1.58 days
  Average Number of Kernels per Plant: 53.5 kernels
  Percent of Plants with Ears >5 kernels: 37.9%
[14]
  Average Number of Days of Pollen per Plant: 1.298 days
  Average Number of Kernels per Plant: 54.18 kernels
  Percent of Plants with Ears >5 kernels: 29.9%
[15]
  Average Number of Days of Pollen per Plant: 1.72 days
  Average Number of Kernels per Plant: 37.34 kernels
  Percent of Plants with Ears >5 kernels: 31.1%
[16]
  Average Number of Days of Pollen per Plant: 1.466 days
  Average Number of Kernels per Plant: 26.17 kernels
[17]
  Average Number of Days of Pollen per Plant: 2.58 days
  Average Number of Kernels per Plant: 27.9 kernels
[18]
  Average Number of Days of Pollen per Plant: 2.51 days
  Average Number of Kernels per Plant: 24.067 kernels
  Percent of Plants with Ears >5 kernels: 29.3%
[19]
  Average Number of Days of Pollen per Plant: 1.12 days
  Average Number of Kernels per Plant: 23.17 kernels
[20]
  Average Number of Days of Pollen per Plant: 1.005 days
  Average Number of Kernels per Plant: 13.75 kernels
  Percent of Plants with Ears >5 kernels: 26.4%
[21]
  Average Number of Days of Pollen per Plant: 1.09 days
  Average Number of Kernels per Plant: 4.97 kernels
  Percent of Plants with Ears >5 kernels: 8.7%
[22]
  Average Number of Days of Pollen per Plant: 1.2 days
  Average Number of Kernels per Plant: 18.11 kernels
  Percent of Plants with Ears >5 kernels: 17.5%
[23]
  Average Number of Days of Pollen per Plant: 1.25 days
  Average Number of Kernels per Plant: 19.56 kernels
  Percent of Plants with Ears >5 kernels: 28.5%
[24]
  Average Number of Days of Pollen per Plant: 0.96 days
  Average Number of Kernels per Plant: 22.12 kernels
  Percent of Plants with Ears >5 kernels: 21.3%
[25]
  Average Number of Days of Pollen per Plant: 1.45 days
  Average Number of Kernels per Plant: 32.5 kernels
  Percent of Plants with Ears >5 kernels: 25.8%
[26]
  Average Number of Days of Pollen per Plant: 1.33 days
  Average Number of Kernels per Plant: 24.5 kernels
  Percent of Plants with Ears >5 kernels: 24.7%
[27]
  Average Number of Days of Pollen per Plant: 1.28 days
  Average Number of Kernels per Plant: 31 kernels
  Percent of Plants with Ears >5 kernels: 29.9%
[28]
  Average Number of Days of Pollen per Plant: 1.1 days
  Average Number of Kernels per Plant: 40.57 kernels
  Percent of Plants with Ears >5 kernels: 26.2%
[29]
  Average Number of Days of Pollen per Plant: 2.66 days
  Average Number of Kernels per Plant: 45.47 kernels
  Percent of Plants with Ears >5 kernels: 64.9%
[30]
  Average Number of Days of Pollen per Plant: 2.81 days
  Average Number of Kernels per Plant: 72.9 kernels
  Percent of Plants with Ears >5 kernels: 72.2%
[31]
  Average Number of Days of Pollen per Plant: 1.65 days
  Average Number of Kernels per Plant: 31.56 kernels
[32]
  Average Number of Days of Pollen per Plant: 1.67 days
  Average Number of Kernels per Plant: 28.03 kernels
  Percent of Plants with Ears >5 kernels: 37.6%
[33]
  Average Number of Days of Pollen per Plant: 2.63 days
  Average Number of Kernels per Plant: 52.86 kernels
  Percent of Plants with Ears >5 kernels: 49.1%
[34]
  Average Number of Days of Pollen per Plant: 2.51 days
  Average Number of Kernels per Plant: 58.48 kernels
  Percent of Plants with Ears >5 kernels: 50.4%
colchicine-treated groups compared with SCD-QTL1 alone, 17 BC3 populations pooled
  pollen and kernel production: performed overall better in both pollen and kernel production than the SCD-QTL1 alone

Reference: US20250234824A1, “MARKERS ASSOCIATED WITH S[…]” (Syngenta Crop Protection AG, priority 2022, published 2025)
